Results from patent US20260217701A1, “SELECTIVE BET INHIBITORS AND USES THEREOF” (Tay Therapeutics Limited, priority 2022, published 2026).
Where “and” joins values, the source holds several entries; their conditions need not be identical. Identical values can stand only once.

Assay: Dog PK study #3 (Compound A PO once daily 5 days, 5/10/20 mg/kg; PK, body weight, hematology)
Type: in vivo, beagle dogs
Parameters: Plasma Concentration: unit not given here
Procedure: For the third dog pharmacokinetic study, three solutions of different concentrations of Compound A were prepared in 5% DMSO/15% PEG-400/80% (10% VE-TPGS) as outlined in Table 2E. The Compound A solutions were administered to animals orally (PO) once daily over a five-day period. Body weight was recorded prior to dosing, and detailed clinical observations were made prior to dosing and throughout the study, as needed.
Animals were divided into Day 1 and Day 5 sample collection groups, with animals in the Day 1 collection group having blood samples taken prior to dosing and at 0.25, 0.5, 1, 2, 4, 8, and 24 hours after dosing on day 1. Animals in the Day 5 collection group having blood samples taken prior to dosing and at 0.25, 0.5, 1, 2, 4, 8, and 24 hours after dosing on day 5. Study groups are outlined in Table 3D.
Blood samples (~0.3 mL) were collected on day according to the following schedule (0.25, 0.5, 1, 2, 4, 8, and 24 h) after day 5 administration of Compound A by venipuncture of peripheral veins except for the dosing vein, and EDTA-K2 was used as anticoagulant. Within 30 minutes of collection, the samples were centrifuged at approximately 2000 times g-force for 10 minutes at 4° C. to obtain blood plasma. The plasma samples were immediately divided into two aliquots (~75 μL each), transferred to a cryogenic vial, and stored in a freezer at −75±15° C. prior to analysis.
The concentration of Compound A in the blood plasma was determined through LC-MS as previously described. Briefly, the experiments were conducted on a DMPK-LCMS-14-SMBA Triple Quad 6500 Plus instrument with an ACQUITY UPLC BEH C18 1.7 μm (50×2.1 mm) column. The matrix was male beagle dog plasma potassium (K2) EDTA A gradient of 95% water (0.1% formic acid and 2 mM HCOONH4)/95% acetonitrile (0.1% formic acid and 2 mM HCOONH4) was used as the mobile phase. The sample flow rate was 0.6 mL/min.
The samples were then vortex-mixed for 10 minutes at 800 rpm and centrifuged for 15 minutes at 3220×g at 4° C. 50 μL aliquots of supernatant were transferred to a clean 96-well plate and centrifuged for 5 minutes at 3220×g at 4° C. Samples were then injected into the LC/MS/MS system for quantitative analysis.
The gathered data were used for pharmacokinetic calculations using T1/2, CO, AUClast, AUCinf, MRTinf, Cl, Vss, and Number of Points for Regression as parameters.
The cell composition (hematology) of blood samples was analyzed at day 5. Analyses identified the total number of white blood cells, neutrophils, lymphocytes, monocytes, eosinophils, basophils, and platelets in collected samples.

[1] = Day 1, 20 mg/kg dose PO, individual animals
[2] = Day 1, Group 1, individual animals
[3] = Day 1, Group 2, individual animals
[4] = Day 1, Group 3, individual animals
[5] = Day 2, Group 1, individual animals
[6] = Day 2, Group 2, individual animals
[7] = Day 2, Group 3, individual animals
[8] = Day 3, Group 1, individual animals
[9] = Day 3, Group 2, individual animals
[10] = Day 3, Group 3, individual animals
[11] = Day 4, Group 1, individual animals
[12] = Day 4, Group 2, individual animals
[13] = Day 4, Group 3, individual animals
[14] = Day 5, 5 mg/kg dose PO, individual animals

Cn1cc(-c2ccccc2)c(-c2cn(C)c(=O)c3[nH]c(-c4cnn(C(F)(F)F)c4)cc23)cc1=O [Compound A, 6-methyl-4-(1-methyl-2-oxo-5-phenyl-1,2-dihydropyridin-4-yl)-2-(1-(trifluoromethyl)-1H-pyrazol-4-yl)-1,6-dihydro-7H-pyrrolo[2,3-c]pyridin-7-one]
Cmax [1]: 6000 ng/mL
MRT0-inf [1]: 18.1 h
MRT0-last [1]: 10.1 h
Tlast [1]: 24.0 h
T½ [1]: 5.64 h and 11.7 h
Vz_F [1]: 3.09 L/kg and 2.89 L/kg
AUC0-last (Day 1, 20 mg/kg dose PO, mean): 67852 ng·h/mL
AUCExtra (Day 1, 20 mg/kg dose PO, mean): 16.1%
AUMCExtra (Day 1, 20 mg/kg dose PO, mean): 39.6%
Cl_F (Day 1, 20 mg/kg dose PO, mean): 4.59 mL/min/kg
Tlast (Day 1, 20 mg/kg dose PO, mean): 24.0 h
Vz_F (Day 1, 20 mg/kg dose PO, mean): 2.99 L/kg
Animal body weight [2]: 8.38 kg and 8.88 kg
Clinical Observation [2]: None
Animal Body Weight, Mean (Day 1, Group 1, mean): 8.63 kg
Animal body weight [3]: 8.36 kg and 9.37 kg
Clinical Observation [3]: None
Animal Body Weight, Mean (Day 1, Group 2, mean): 8.87 kg
Animal body weight [4]: 9.24 kg and 8.79 kg
Clinical Observation [4]: None
Animal Body Weight, Mean (Day 1, Group 3, mean): 9.02 kg
Animal body weight [5]: 8.44 kg and 9.33 kg
Clinical Observation [5]: None
Animal Body Weight, Mean (Day 2, Group 1, mean): 8.89 kg
Animal body weight [6]: 9.63 kg and 8.65 kg
Clinical Observation [6]: None
Animal Body Weight, Mean (Day 2, Group 2, mean): 9.14 kg
Animal body weight [7]: 9.44 kg and 9.25 kg
Clinical Observation [7]: None
Animal Body Weight, Mean (Day 2, Group 3, mean): 9.35 kg
Animal body weight [8]: 8.45 kg and 9.29 kg
Clinical Observation [8]: None
Animal Body Weight, Mean (Day 3, Group 1, mean): 8.87 kg
Animal body weight [9]: 9.5 kg and 8.69 kg
Clinical Observation [9]: None
Animal Body Weight, Mean (Day 3, Group 2, mean): 9.10 kg
Animal body weight [10]: 9.32 kg and 8.96 kg
Clinical Observation [10]: None
Animal Body Weight, Mean (Day 3, Group 3, mean): 9.14 kg
Animal body weight [11]: 8.45 kg and 9.29 kg
Clinical Observation [11]: None
Animal Body Weight, Mean (Day 4, Group 1, mean): 8.87 kg
Animal body weight [12]: 9.43 kg and 8.6 kg
Clinical Observation [12]: None
Animal Body Weight, Mean (Day 4, Group 2, mean): 9.02 kg
Animal body weight [13]: 9.13 kg and 8.6 kg
Clinical Observation [13]: None
Animal Body Weight, Mean (Day 4, Group 3, mean): 8.87 kg
Plasma Concentration (Day 5, 5 mg/kg dose PO, time 1, individual animals): 1120 and 910
Plasma Concentration (Day 5, 5 mg/kg dose PO, time 1, mean): 1015
Plasma Concentration (Day 5, 5 mg/kg dose PO, time 2, individual animals): 1270 and 1040
Plasma Concentration (Day 5, 5 mg/kg dose PO, time 2, mean): 1155
Plasma Concentration (Day 5, 5 mg/kg dose PO, time 4, individual animals): 1180 and 878
Plasma Concentration (Day 5, 5 mg/kg dose PO, time 4, mean): 1029
Plasma Concentration (Day 5, 5 mg/kg dose PO, time 8, individual animals): 823 and 650
Plasma Concentration (Day 5, 5 mg/kg dose PO, time 8, mean): 737
Plasma Concentration (Day 5, 5 mg/kg dose PO, time 24, individual animals): 400
AUC0-last [14]: 11297 ng·h/mL
AUC(0-inf) [14]: 25554 ng·h/mL and 12279 ng·h/mL
AUCExtra [14]: 30.4% and 8.00%
AUMCExtra [14]: 65.9% and 26.4%
Cl_F [14]: 3.26 mL/min/kg and 6.79 mL/min/kg
Cmax [14]: 1040 ng/mL
MRT0-last [14]: 8.08 h
Tlast [14]: 24.0 h
T½ [14]: 13.5 h and 6.42 h
Vz_F [14]: 3.82 L/kg and 3.77 L/kg
AUC0-last (Day 5, 5 mg/kg dose PO, mean): 14544 ng·h/mL
AUCExtra (Day 5, 5 mg/kg dose PO, mean): 19.2%
AUMCExtra (Day 5, 5 mg/kg dose PO, mean): 46.2%
Cl_F (Day 5, 5 mg/kg dose PO, mean): 5.02 mL/min/kg
Tlast (Day 5, 5 mg/kg dose PO, mean): 24.0 h
Vz_F (Day 5, 5 mg/kg dose PO, mean): 3.79 L/kg
Basophils (Day 5, 5 mg/kg/day (mean), range 0.00-0.19): 0.08 10^3/μL
Eosinophils (Day 5, 5 mg/kg/day (mean), range 0.00-1.24): 0.38 10^3/μL
Monocytes (Day 5, 5 mg/kg/day (mean), range 0.11-1.08): 0.31 10^3/μL
Lymphocytes (Day 5, 5 mg/kg/day (mean), range 1.42-3.76): 2.72 10^3/μL
